Results: PubChem BioAssay (NCI)
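The compound was tested at five concentrations on cells cultured in 96-well plates, with a 48-hour exposure period. TGI denotes the concentration required for complete inhibition of growth.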

Assays:
Test in all cases: NCI anticancer screen, dose series, 48 h
TK-10 renal = system: TK-10 renal
NCI-H23 lung = system: NCI-H23 lung
MCF7 breast = system: MCF7 breast
CCRF-CEM leukemia = system: CCRF-CEM leukemia
BT-549 breast = system: BT-549 breast
UO-31 renal = system: UO-31 renal
HCT-15 colon = system: HCT-15 colon
SF-268 CNS = system: SF-268 CNS
786-0 renal = system: 786-0 renal
HOP-62 NSCLC = system: HOP-62 NSCLC
SF-539 CNS = system: SF-539 CNS
HOP-92 NSCLC = system: HOP-92 NSCLC
A549 NSCLC = system: A549 NSCLC
SN12C renal = system: SN12C renal
SK-OV-3 ovarian = system: SK-OV-3 ovarian
EKVX NSCLC = system: EKVX NSCLC
T-47D breast = system: T-47D breast
IGROV1 ovarian = system: IGROV1 ovarian
MOLT-4 leukemia = system: MOLT-4 leukemia
OVCAR-4 ovarian = system: OVCAR-4 ovarian
MDA-N = system: MDA-N
SK-MEL-28 melanoma = system: SK-MEL-28 melanoma
SK-MEL-5 melanoma = system: SK-MEL-5 melanoma
M14 melanoma = system: M14 melanoma
RPMI-8226 leukemia = system: RPMI-8226 leukemia
DU-145 prostate = system: DU-145 prostate
OVCAR-8 ovarian = system: OVCAR-8 ovarian
LOX IMVI melanoma = system: LOX IMVI melanoma
MDA-MB-231 breast = system: MDA-MB-231 breast
K-562 leukemia = system: K-562 leukemia
CAKI-1 renal = system: CAKI-1 renal
U251 CNS = system: U251 CNS
SNB-75 CNS = system: SNB-75 CNS
UACC-257 melanoma = system: UACC-257 melanoma
SR leukemia = system: SR leukemia
SW-620 colon = system: SW-620 colon
NCI/ADR-RES ovarian = system: NCI/ADR-RES ovarian
COLO 205 colon = system: COLO 205 colon
UACC-62 melanoma = system: UACC-62 melanoma
KM12 colon = system: KM12 colon
HCC-2998 colon = system: HCC-2998 colon
HL-60(TB) leukemia = system: HL-60(TB) leukemia
HS 578T breast = system: HS 578T breast
MALME-3M melanoma = system: MALME-3M melanoma
RXF 393 renal = system: RXF 393 renal
ACHN renal = system: ACHN renal
OVCAR-5 ovarian = system: OVCAR-5 ovarian
NCI-H226 lung = system: NCI-H226 lung
SNB-19 CNS = system: SNB-19 CNS
SK-MEL-2 melanoma = system: SK-MEL-2 melanoma
SF-295 CNS = system: SF-295 CNS
NCI-H460 lung = system: NCI-H460 lung
HT29 colon = system: HT29 colon

## O=C(Cc1ccccc1)NNc1nc(NNC(=O)c2ccncc2)nc(Nc2ccc(Cl)cc2)n1
TK-10 renal
  TGI: > 10 µM
NCI-H23 lung
  TGI: > 10 µM
MCF7 breast
  TGI: > 10 µM
CCRF-CEM leukemia
  TGI: > 10 µM
BT-549 breast
  TGI: > 10 µM
UO-31 renal
  TGI: > 10 µM
HCT-15 colon
  TGI: > 10 µM
SF-268 CNS
  TGI: > 10 µM
786-0 renal
  TGI: > 10 µM
HOP-62 NSCLC
  TGI: > 10 µM
SF-539 CNS
  TGI: > 10 µM
HOP-92 NSCLC
  TGI: > 10 µM
A549 NSCLC
  TGI: > 10 µM
SN12C renal
  TGI: > 10 µM
SK-OV-3 ovarian
  TGI: > 10 µM
EKVX NSCLC
  TGI: > 10 µM
T-47D breast
  TGI: > 10 µM
IGROV1 ovarian
  TGI: > 10 µM
MOLT-4 leukemia
  TGI: > 10 µM
OVCAR-4 ovarian
  TGI: > 10 µM
MDA-N
  TGI: > 10 µM
SK-MEL-28 melanoma
  TGI: > 10 µM
SK-MEL-5 melanoma
  TGI: > 10 µM
M14 melanoma
  TGI: > 10 µM
RPMI-8226 leukemia
  TGI: > 10 µM
DU-145 prostate
  TGI: > 10 µM
OVCAR-8 ovarian
  TGI: > 10 µM
LOX IMVI melanoma
  TGI: > 10 µM
MDA-MB-231 breast
  TGI: > 10 µM
K-562 leukemia
  TGI: > 10 µM
CAKI-1 renal
  TGI: > 10 µM
U251 CNS
  TGI: > 10 µM
SNB-75 CNS
  TGI: > 10 µM
UACC-257 melanoma
  TGI: > 10 µM
SR leukemia
  TGI: > 10 µM
SW-620 colon
  TGI: > 10 µM
NCI/ADR-RES ovarian
  TGI: > 10 µM
COLO 205 colon
  TGI: > 10 µM
UACC-62 melanoma
  TGI: > 10 µM
KM12 colon
  TGI: > 10 µM
HCC-2998 colon
  TGI: > 10 µM
HL-60(TB) leukemia
  TGI: > 10 µM
HS 578T breast
  TGI: > 10 µM
MALME-3M melanoma
  TGI: > 10 µM

## COc1ccc([C@H](NC(=O)c2ccccc2)[C@@H](O)C(=O)O[C@H]2C[C@@]3(O)C(OC(=O)c4ccccc4)C4[C@](C)(C(=O)[C@H](OC(C)=O)C(=C2C)C3(C)C)[C@@H](O)C[C@H]2OC[C@@]42OC(C)=O)cc1 (some centres not stated)
TK-10 renal
  TGI: > 10 µM
NCI-H23 lung
  TGI: > 10 µM
MCF7 breast
  TGI: > 10 µM
CCRF-CEM leukemia
  TGI: > 10 µM
BT-549 breast
  TGI: > 10 µM
HCT-15 colon
  TGI: > 8.98 µM
SF-268 CNS
  TGI: > 10 µM
786-0 renal
  TGI: > 10 µM
SF-539 CNS
  TGI: 0.00758 µM
HOP-92 NSCLC
  TGI: > 10 µM
A549 NSCLC
  TGI: > 10 µM
RXF 393 renal
  TGI: > 10 µM
SN12C renal
  TGI: > 10 µM
EKVX NSCLC
  TGI: > 10 µM
T-47D breast
  TGI: > 10 µM
ACHN renal
  TGI: > 10 µM
IGROV1 ovarian
  TGI: > 10 µM
MOLT-4 leukemia
  TGI: > 5.11 µM
OVCAR-4 ovarian
  TGI: > 10 µM
MDA-N
  TGI: > 10 µM
SK-MEL-28 melanoma
  TGI: > 10 µM
SK-MEL-5 melanoma
  TGI: > 10 µM
OVCAR-5 ovarian
  TGI: > 10 µM
M14 melanoma
  TGI: > 10 µM
RPMI-8226 leukemia
  TGI: > 10 µM
DU-145 prostate
  TGI: 0.00657 µM
OVCAR-8 ovarian
  TGI: > 10 µM
LOX IMVI melanoma
  TGI: > 10 µM
NCI-H226 lung
  TGI: > 10 µM
MDA-MB-231 breast
  TGI: > 10 µM
SNB-19 CNS
  TGI: > 10 µM
K-562 leukemia
  TGI: > 10 µM
CAKI-1 renal
  TGI: > 10 µM
SNB-75 CNS
  TGI: 0.0589 µM
SK-MEL-2 melanoma
  TGI: > 10 µM
UACC-257 melanoma
  TGI: > 10 µM
SR leukemia
  TGI: 0.694 µM
SF-295 CNS
  TGI: 2.92 µM
SW-620 colon
  TGI: > 10 µM
NCI/ADR-RES ovarian
  TGI: > 10 µM
COLO 205 colon
  TGI: 0.0123 µM
UACC-62 melanoma
  TGI: > 10 µM
HCC-2998 colon
  TGI: 0.091 µM
NCI-H460 lung
  TGI: > 10 µM
HL-60(TB) leukemia
  TGI: 0.0279 µM
HT29 colon
  TGI: 0.0656 µM
HS 578T breast
  TGI: 0.0122 µM
MALME-3M melanoma
  TGI: > 10 µM
